What was measured:
Assay type in all cases: cell-based
[1] = target: human α1H T-type channels (Homo sapiens, UniProt O95180); assay: T-type calcium channel block, whole cell patch clamp, α1H; conditions: HEK cells stably expressing human α1H; mainly non-inactivated protocol; values above 10,000 nM represented as 10000
Procedure, shortened: (§1)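 Read-out: current block in whole-cell patch clamp of HEK 293 cells stably expressing human α1G or α1H subunits. Compounds were perfused locally in external solution (0.1-0.01% DMSO) under resting and inactivating voltage protocols.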

[2] = target: N-type calcium channel subunits (α1B, α2δ, and β3a) (Homo sapiens, UniProt Q00975); assay: Block of Cav2.2 channel, whole cell voltage clamp, manual and PatchXpress; conditions: Table 5; table follows Assay Example 3 (whole cell voltage clamp / PatchXpress); assay not given
Procedure, shortened: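 Percent block taken as current amplitude ratio with versus without compound, applied in rising doses; IC50 fitted where one cell received multiple doses. Protocol: 50 ms pulses to +20 mV at 0.067 Hz from […] or −90 mV holding; P/n leak subtraction, no junction-potential correction; manual and PatchXpress recordings.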

[3] = target: human α1G T-type channels (Homo sapiens, UniProt O43497); assay: T-type calcium channel block, whole cell patch clamp, α1G; conditions: HEK cells stably expressing human α1G; mainly non-inactivated protocol; values above 10,000 nM represented as 10000
Sequence of human α1G T-type channels (O43497 whole entry): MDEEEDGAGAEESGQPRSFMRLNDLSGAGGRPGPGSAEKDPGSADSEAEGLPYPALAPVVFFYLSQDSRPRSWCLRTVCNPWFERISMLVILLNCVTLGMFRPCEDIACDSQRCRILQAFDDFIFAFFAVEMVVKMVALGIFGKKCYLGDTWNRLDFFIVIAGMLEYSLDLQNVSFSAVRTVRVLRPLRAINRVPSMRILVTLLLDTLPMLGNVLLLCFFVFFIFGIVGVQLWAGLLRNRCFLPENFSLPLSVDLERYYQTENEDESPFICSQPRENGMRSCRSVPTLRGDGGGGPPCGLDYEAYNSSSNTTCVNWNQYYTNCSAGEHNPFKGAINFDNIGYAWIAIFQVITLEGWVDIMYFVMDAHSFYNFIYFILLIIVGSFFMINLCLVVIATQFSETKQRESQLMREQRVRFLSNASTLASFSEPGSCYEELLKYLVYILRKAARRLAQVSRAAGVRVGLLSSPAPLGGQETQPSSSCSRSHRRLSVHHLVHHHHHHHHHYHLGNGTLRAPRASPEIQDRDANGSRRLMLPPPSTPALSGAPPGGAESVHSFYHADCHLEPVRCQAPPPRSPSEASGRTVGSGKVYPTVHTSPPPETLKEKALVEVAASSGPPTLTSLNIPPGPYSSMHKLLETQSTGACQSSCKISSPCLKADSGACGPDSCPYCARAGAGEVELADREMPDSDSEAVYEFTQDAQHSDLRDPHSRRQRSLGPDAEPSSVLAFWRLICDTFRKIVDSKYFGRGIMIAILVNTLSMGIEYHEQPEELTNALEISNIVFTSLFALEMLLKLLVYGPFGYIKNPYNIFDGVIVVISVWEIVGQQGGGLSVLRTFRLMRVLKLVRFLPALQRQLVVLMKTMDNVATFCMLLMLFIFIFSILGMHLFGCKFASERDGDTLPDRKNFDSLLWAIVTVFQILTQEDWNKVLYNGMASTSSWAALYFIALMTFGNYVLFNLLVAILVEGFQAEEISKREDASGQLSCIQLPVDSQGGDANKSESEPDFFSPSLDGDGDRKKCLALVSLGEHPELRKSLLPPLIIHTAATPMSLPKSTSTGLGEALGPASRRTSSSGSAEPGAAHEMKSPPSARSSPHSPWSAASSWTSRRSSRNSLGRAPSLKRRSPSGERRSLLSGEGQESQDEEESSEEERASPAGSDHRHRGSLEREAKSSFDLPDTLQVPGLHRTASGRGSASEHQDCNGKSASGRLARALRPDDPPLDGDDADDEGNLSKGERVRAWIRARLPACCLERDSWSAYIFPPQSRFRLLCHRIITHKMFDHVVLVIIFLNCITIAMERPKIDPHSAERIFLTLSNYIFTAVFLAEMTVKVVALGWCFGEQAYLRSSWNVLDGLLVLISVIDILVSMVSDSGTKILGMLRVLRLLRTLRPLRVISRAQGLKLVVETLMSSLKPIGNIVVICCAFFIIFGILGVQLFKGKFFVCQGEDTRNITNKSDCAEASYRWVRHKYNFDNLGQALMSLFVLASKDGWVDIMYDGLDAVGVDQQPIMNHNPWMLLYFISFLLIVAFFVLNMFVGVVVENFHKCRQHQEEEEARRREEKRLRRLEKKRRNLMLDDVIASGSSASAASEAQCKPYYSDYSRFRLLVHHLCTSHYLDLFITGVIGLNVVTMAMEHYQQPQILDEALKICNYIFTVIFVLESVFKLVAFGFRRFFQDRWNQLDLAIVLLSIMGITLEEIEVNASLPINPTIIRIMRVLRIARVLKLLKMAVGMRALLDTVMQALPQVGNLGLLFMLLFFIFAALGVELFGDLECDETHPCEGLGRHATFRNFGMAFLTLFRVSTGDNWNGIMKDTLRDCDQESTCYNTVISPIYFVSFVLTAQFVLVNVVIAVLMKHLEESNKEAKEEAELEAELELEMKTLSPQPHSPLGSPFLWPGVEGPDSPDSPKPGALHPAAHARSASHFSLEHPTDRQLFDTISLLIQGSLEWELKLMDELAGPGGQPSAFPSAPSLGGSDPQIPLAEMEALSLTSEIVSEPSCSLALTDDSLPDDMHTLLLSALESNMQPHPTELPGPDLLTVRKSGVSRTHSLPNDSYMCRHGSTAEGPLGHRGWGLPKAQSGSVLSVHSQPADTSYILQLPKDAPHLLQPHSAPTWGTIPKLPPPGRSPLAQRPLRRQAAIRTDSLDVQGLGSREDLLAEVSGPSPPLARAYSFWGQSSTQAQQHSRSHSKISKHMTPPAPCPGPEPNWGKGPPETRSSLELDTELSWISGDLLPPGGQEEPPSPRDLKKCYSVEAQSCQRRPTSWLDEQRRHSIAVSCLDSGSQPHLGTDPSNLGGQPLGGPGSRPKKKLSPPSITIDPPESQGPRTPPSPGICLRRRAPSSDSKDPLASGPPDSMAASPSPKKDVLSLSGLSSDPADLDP
Procedure, shortened: as §1

Sequence of human α1H T-type channels (O95180 whole entry, the tested form may be a part): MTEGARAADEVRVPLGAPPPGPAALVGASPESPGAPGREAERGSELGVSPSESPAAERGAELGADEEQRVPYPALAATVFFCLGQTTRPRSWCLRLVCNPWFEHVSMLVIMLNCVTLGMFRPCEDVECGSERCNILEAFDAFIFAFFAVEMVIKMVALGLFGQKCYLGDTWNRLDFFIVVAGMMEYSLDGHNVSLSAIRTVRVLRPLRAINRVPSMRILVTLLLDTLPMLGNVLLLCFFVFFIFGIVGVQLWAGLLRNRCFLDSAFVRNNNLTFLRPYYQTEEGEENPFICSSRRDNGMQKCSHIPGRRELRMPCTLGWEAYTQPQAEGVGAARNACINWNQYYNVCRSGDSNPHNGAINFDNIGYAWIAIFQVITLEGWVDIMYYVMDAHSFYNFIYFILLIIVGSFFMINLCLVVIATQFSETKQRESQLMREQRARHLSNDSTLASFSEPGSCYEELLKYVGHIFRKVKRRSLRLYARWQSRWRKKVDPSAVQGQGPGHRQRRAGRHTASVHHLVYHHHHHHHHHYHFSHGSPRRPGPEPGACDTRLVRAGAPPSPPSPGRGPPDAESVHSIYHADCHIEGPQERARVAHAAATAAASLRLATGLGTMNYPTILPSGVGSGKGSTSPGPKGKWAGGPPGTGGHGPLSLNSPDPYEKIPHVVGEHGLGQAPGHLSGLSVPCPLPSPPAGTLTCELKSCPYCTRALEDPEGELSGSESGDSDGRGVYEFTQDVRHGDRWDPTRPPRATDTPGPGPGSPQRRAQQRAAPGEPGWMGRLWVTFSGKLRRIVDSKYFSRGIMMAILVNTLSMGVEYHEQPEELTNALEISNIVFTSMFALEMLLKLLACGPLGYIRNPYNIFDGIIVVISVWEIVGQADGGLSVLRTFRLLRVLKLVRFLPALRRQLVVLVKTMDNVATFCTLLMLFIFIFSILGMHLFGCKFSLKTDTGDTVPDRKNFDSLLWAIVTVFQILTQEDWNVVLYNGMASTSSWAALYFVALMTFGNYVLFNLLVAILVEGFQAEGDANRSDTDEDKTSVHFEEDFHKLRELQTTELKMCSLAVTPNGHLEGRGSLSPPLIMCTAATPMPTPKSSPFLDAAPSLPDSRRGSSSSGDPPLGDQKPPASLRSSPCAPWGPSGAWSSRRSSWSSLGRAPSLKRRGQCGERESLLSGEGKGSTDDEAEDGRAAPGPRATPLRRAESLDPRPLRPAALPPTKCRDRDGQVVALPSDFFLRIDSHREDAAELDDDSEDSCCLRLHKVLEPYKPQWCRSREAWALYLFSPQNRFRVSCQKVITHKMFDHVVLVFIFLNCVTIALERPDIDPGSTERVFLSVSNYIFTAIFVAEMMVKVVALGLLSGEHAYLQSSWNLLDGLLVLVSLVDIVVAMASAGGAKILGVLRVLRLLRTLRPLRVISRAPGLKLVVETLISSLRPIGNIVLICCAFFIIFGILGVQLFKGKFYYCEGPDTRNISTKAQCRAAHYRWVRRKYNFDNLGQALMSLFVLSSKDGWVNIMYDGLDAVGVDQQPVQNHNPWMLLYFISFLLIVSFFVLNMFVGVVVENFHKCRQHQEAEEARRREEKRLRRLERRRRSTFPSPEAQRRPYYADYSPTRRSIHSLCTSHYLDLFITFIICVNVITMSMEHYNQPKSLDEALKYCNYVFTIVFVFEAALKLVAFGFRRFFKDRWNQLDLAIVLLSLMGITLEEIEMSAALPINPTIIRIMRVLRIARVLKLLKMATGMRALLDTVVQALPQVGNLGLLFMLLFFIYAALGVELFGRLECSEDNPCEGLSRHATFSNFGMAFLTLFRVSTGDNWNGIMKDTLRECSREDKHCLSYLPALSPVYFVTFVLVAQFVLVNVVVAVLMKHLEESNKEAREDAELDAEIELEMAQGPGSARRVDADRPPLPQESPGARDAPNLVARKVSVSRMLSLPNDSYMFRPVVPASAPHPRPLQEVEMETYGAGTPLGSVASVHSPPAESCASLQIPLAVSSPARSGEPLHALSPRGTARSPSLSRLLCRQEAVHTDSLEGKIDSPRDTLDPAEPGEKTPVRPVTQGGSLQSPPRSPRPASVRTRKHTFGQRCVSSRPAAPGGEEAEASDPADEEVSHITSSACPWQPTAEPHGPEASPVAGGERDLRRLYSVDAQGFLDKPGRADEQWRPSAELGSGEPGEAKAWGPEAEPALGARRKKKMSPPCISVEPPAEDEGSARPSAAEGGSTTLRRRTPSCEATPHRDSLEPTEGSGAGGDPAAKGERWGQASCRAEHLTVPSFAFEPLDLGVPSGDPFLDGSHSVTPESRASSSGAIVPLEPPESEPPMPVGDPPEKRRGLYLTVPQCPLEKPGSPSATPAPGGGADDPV

IC50 [1] | IC50 [2] | IC50 [3] | Compound
720 nM | 250 nM | 760 nM | CC(C)(C)NC(=O)CN[C@H]1CC[C@@](F)(S(=O)(=O)c2cccc(C(F)(F)F)c2)CC1 [Compound 27, N-tert-butyl-2-((1S,4S)-4-fluoro-4-(3-(trifluoromethyl)phenylsulfonyl)cyclohexylamino)acetamide]
1270 nM | 940 nM | 1230 nM | CC(C)(C)NC(=O)CN[C@H]1CC[C@](F)(S(=O)(=O)c2cccc(C(F)(F)F)c2)CC1 [Compound 28, N-tert-butyl-2-((1R,4R)-4-fluoro-4-(3-(trifluoromethyl)phenylsulfonyl)cyclohexylamino)acetamide]
430 nM | 610 nM | 260 nM | O=C(NC[C@H]1CC[C@@H](S(=O)(=O)c2cccc(C(F)(F)F)c2)CC1)c1cc(F)cc(Cl)c1 [Compound 29, 3-chloro-5-fluoro-N-(((1S,4S)-4-(3-(trifluoromethyl)phenylsulfonyl)cyclohexyl)methyl)benzamide]
1410 nM | 720 nM | 1290 nM | COc1cc(F)cc(C(=O)NC[C@H]2CC[C@@H](S(=O)(=O)c3cccc(C(F)(F)F)c3)CC2)c1 [Compound 30, 3-fluoro-5-methoxy-N-(((1S,4S)-4-(3-(trifluoromethyl)phenylsulfonyl)cyclohexyl)methyl)benzamide]
5540 nM | 360 nM | 1150 nM | O=C(NC[C@H]1CC[C@@H](S(=O)(=O)c2cccc(C(F)(F)F)c2)CC1)c1ccc(F)c(C(F)(F)F)c1 [Compound 31, 4-fluoro-3-(trifluoromethyl)-N-(((1S,4S)-4-(3-(trifluoromethyl)phenylsulfonyl)cyclohexyl)methyl)benzamide]
2690 nM | 440 nM | 500 nM | Cn1nc(C(F)(F)F)cc1C(=O)NC[C@H]1CC[C@@H](S(=O)(=O)c2cccc(C(F)(F)F)c2)CC1 [Compound 32, 1-methyl-3-(trifluoromethyl)-N-(((1S,4S)-4-(3-(trifluoromethyl)phenylsulfonyl)cyclohexyl)methyl)-1H-pyrazole-5-carboxamide]
5110 nM | 740 nM | 5250 nM | O=C(CNC[C@H]1CC[C@@H](S(=O)(=O)c2cccc(C(F)(F)F)c2)CC1)NC1CCCCC1 [Compound 36, N-cyclohexyl-2-(((1S,4S)-4-(3-(trifluoromethyl)phenylsulfonyl)cyclohexyl)methylamino)acetamide]
3620 nM | 1310 nM | 9280 nM | O=C(CNC[C@H]1CC[C@@H](S(=O)(=O)c2cccc(C(F)(F)F)c2)CC1)NCC(F)(F)F [Compound 37, N-(2,2,2-trifluoroethyl)-2-(((1S,4S)-4-(3-(trifluoromethyl)phenylsulfonyl)cyclohexyl)methylamino)acetamide]
2860 nM | 480 nM | 1510 nM | O=C(N[C@H]1CC[C@@H](S(=O)(=O)c2cccc(C(F)(F)F)c2)CC1)c1cc(C(F)(F)F)ccn1 [Compound 42, 4-(trifluoromethyl)-N-((1S,4S)-4-(3-(trifluoromethyl)phenylsulfonyl)cyclohexyl)picolinamide]
910 nM | 1060 nM | 1250 nM | O=C(N[C@H]1CC[C@@H](S(=O)(=O)c2cccc(C(F)(F)F)c2)CC1)c1cc(-c2ccc(F)cc2)n[nH]1 [Compound 46, 3-(4-fluorophenyl)-N-((1S,4S)-4-(3-(trifluoromethyl)phenylsulfonyl)cyclohexyl)-1H-pyrazole-5-carboxamide]
2330 nM | 1650 nM | 1430 nM | O=C(CN[C@H]1CC[C@@H](S(=O)(=O)c2cccc(C(F)(F)F)c2)CC1)NCC(F)(F)F [Compound 48, N-(2,2,2-trifluoroethyl)-2-((1S,4S)-4-(3-(trifluoromethyl)phenylsulfonyl)cyclohexylamino)acetamide]
> 10000 nM | 200 nM | > 10000 nM | CC(C)(C)NC(=O)CN[C@H]1CC[C@@H](S(=O)(=O)c2cccc(C(F)(F)F)c2)CC1 [Compound 49, N-tert-butyl-2-((1S,4S)-4-(3-(trifluoromethyl)phenylsulfonyl)cyclohexylamino)acetamide]
> 10000 nM | 90 nM | > 10000 nM | CN(C(=O)CN[C@H]1CC[C@@H](S(=O)(=O)c2cccc(C(F)(F)F)c2)CC1)C(C)(C)C [Compound 50, N-tert-butyl-N-methyl-2-((1S,4S)-4-(3-(trifluoromethyl)phenylsulfonyl)cyclohexylamino)acetamide]
790 nM | 1540 nM | 860 nM | CC(C)NC(=O)CN[C@H]1CC[C@@H](S(=O)(=O)c2cccc(C(F)(F)F)c2)CC1 [Compound 52, N-isopropyl-2-((1S,4S)-4-(3-(trifluoromethyl)phenylsulfonyl)cyclohexylamino)acetamide]
7290 nM | 4630 nM | > 10000 nM | Cc1cc(NC(=O)CN[C@H]2CC[C@@H](S(=O)(=O)c3cccc(C(F)(F)F)c3)CC2)on1 [Compound 54, N-(3-methylisoxazol-5-yl)-2-((1S,4S)-4-(3-(trifluoromethyl)phenylsulfonyl)cyclohexylamino)acetamide]
480 nM | 260 nM | 820 nM | O=C(CN[C@H]1CC[C@@H](S(=O)(=O)c2cccc(C(F)(F)F)c2)CC1)NC1CCCCC1 [Compound 56, N-cyclohexyl-2-((1S,4S)-4-(3-(trifluoromethyl)phenylsulfonyl)cyclohexylamino)acetamide]
1530 nM | 860 nM | 4940 nM | O=C(CN[C@H]1CC[C@@H](S(=O)(=O)c2cccc(C(F)(F)F)c2)CC1)Nc1ccccn1 [Compound 57, N-(pyridin-2-yl)-2-((1S,4S)-4-(3-(trifluoromethyl)phenylsulfonyl)cyclohexylamino)acetamide]
1480 nM | 800 nM | 1850 nM | O=C(N[C@H]1CC[C@H](S(=O)(=O)c2cccc(C(F)(F)F)c2)CC1)c1ccc(F)c(C(F)(F)F)c1 [Compound 58, 4-fluoro-3-(trifluoromethyl)-N-((1R,4R)-4-(3-(trifluoromethyl)phenylsulfonyl)cyclohexyl)benzamide]
3900 nM | 370 nM | 6440 nM | O=C(N[C@H]1CC[C@H](S(=O)(=O)c2cccc(C(F)(F)F)c2)CC1)c1cc(F)cc(Cl)c1 [Compound 60, 3-chloro-5-fluoro-N-((1R,4R)-4-(3-(trifluoromethyl)phenylsulfonyl)cyclohexyl)benzamide]
550 nM | 3480 nM | 1080 nM | O=C(N[C@H]1CC[C@H](S(=O)(=O)c2cccc(C(F)(F)F)c2)CC1)c1ccc(C(F)(F)F)cn1 [Compound 62, 5-(trifluoromethyl)-N-((1R,4R)-4-(3-(trifluoromethyl)phenylsulfonyl)cyclohexyl)picolinamide]
> 10000 nM | 550 nM | > 10000 nM | O=C(N[C@H]1CC[C@H](S(=O)(=O)c2cccc(C(F)(F)F)c2)CC1)c1cc(F)cc(C(F)(F)F)c1 [Compound 65, 3-fluoro-5-(trifluoromethyl)-N-((1R,4R)-4-(3-(trifluoromethyl)phenylsulfonyl)cyclohexyl)benzamide]
> 10000 nM | 8990 nM | > 10000 nM | O=C(N[C@H]1CC[C@H](S(=O)(=O)c2cccc(C(F)(F)F)c2)CC1)C1(C(F)(F)F)CCC1 [Compound 66, 1-(trifluoromethyl)-N-((1R,4R)-4-(3-(trifluoromethyl)phenylsulfonyl)cyclohexyl)cyclobutanecarboxamide]
> 10000 nM | 1650 nM | > 10000 nM | CC(C)(C)NC(=O)CN[C@H]1CC[C@H](S(=O)(=O)c2cccc(C(F)(F)F)c2)CC1 [Compound 69, N-tert-butyl-2-((1R,4R)-4-(3-(trifluoromethyl)phenylsulfonyl)cyclohexylamino)acetamide]
2580 nM | 1220 nM | 8810 nM | CN(C(=O)CN[C@H]1CC[C@H](S(=O)(=O)c2cccc(C(F)(F)F)c2)CC1)C(C)(C)C [Compound 70, N-tert-butyl-N-methyl-2-((1R,4R)-4-(3-(trifluoromethyl)phenylsulfonyl)cyclohexylamino)acetamide]
1210 nM | 4950 nM | 1530 nM | Cc1cc(NC(=O)CN[C@H]2CC[C@H](S(=O)(=O)c3cccc(C(F)(F)F)c3)CC2)on1 [Compound 74, N-(3-methylisoxazol-5-yl)-2-((1R,4R)-4-(3-(trifluoromethyl)phenylsulfonyl)cyclohexylamino)acetamide]
510 nM | 590 nM | 1030 nM | O=C(CN[C@H]1CC[C@H](S(=O)(=O)c2cccc(C(F)(F)F)c2)CC1)NC1CCCCC1 [Compound 76, N-cyclohexyl-2-((1R,4R)-4-(3-(trifluoromethyl)phenylsulfonyl)cyclohexylamino)acetamide]
440 nM | 630 nM | 1190 nM | O=C(N[C@H]1CC[C@](F)(S(=O)(=O)c2cccc(C(F)(F)F)c2)CC1)c1cc(C(F)(F)F)ccn1 [Compound 79, N-((1R,4R)-4-fluoro-4-(3-(trifluoromethyl)phenylsulfonyl)cyclohexyl)-4-(trifluoromethyl)picolinamide]
